Reference: US9567302B2, “Carbamate compounds and of making and using same” (Abide Therapeutics, Inc., priority 2012, dated 2017)

How the values were obtained:
Type in all cases: biochemical
Set-up in all cases: from tissue
[1] = molecular target: T1, MAGL (Mus musculus, UniProt O35678); assay: In vitro competitive ABPP, % inhibition at fixed concentration, MAGL
T1 sequence (O35678 1-303): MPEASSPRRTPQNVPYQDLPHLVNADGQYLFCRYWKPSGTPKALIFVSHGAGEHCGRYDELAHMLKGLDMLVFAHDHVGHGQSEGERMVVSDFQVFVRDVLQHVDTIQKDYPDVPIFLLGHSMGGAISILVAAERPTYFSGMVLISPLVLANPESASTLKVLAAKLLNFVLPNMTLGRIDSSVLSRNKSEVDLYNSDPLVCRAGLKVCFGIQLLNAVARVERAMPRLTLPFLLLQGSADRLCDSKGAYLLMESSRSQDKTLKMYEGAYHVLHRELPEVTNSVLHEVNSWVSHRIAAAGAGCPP
In short: (§1)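 Mouse brain membrane proteome or cell lysate at 1.0 mg/ml was preincubated with inhibitor for 30 min at 37° C, then labelled with FP-Rh for another 30 min. After SDS-PAGE, activity was quantified from the fluorescent intensity of the MAGL, ABHD6 and FAAH bands.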

[2] = molecular target: T2, ABHD6 (Mus musculus, UniProt Q8R2Y0); assay: In vitro competitive ABPP, % inhibition at fixed concentration, ABHD6
T2 sequence (Q8R2Y0 1-336): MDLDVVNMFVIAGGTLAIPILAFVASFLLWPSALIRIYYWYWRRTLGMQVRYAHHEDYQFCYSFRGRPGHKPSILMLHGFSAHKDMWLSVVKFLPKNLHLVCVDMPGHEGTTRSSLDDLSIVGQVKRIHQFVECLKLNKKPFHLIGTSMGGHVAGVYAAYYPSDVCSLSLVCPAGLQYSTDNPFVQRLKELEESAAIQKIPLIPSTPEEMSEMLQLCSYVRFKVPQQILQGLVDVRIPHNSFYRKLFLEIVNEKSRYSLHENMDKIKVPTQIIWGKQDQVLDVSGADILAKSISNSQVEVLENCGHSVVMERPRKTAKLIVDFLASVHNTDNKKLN
In short: as §1

[3] = molecular target: T3, FAAH (Mus musculus, UniProt O08914); assay: In vitro competitive ABPP, % inhibition at fixed concentration, FAAH
T3 sequence (O08914 1-579): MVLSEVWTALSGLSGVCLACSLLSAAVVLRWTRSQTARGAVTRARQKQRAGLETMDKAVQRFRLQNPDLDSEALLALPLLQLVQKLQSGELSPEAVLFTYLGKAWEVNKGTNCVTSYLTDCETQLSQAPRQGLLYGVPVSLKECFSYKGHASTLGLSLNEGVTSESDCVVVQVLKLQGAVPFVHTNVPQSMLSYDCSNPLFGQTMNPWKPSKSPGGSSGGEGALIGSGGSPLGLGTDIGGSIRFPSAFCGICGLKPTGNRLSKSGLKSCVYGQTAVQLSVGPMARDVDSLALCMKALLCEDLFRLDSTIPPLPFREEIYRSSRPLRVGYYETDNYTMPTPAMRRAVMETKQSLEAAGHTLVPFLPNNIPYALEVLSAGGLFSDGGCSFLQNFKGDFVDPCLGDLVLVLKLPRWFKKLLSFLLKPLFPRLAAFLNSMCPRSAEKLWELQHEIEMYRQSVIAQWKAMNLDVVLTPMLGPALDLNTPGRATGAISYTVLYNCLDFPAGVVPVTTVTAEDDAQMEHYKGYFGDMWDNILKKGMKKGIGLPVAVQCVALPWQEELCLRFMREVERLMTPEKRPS
In short: as §1

Structure (SMILES) | inhibition at 1 µM [1] [%] | inhibition at 1 µM [2] [%] | inhibition at 1 µM [3] [%] | inhibition at 10 µM [1] [%] | inhibition at 10 µM [2] [%] | inhibition at 10 µM [3] [%]
O=C(ON1C(=O)CCC1=O)N1CCN(Cc2cc(Cl)ccc2C(=O)N2CCOCC2)CC1 [Example 199, 2,5-Dioxopyrrolidin-1-yl 4-{[5-chloro-2-(morpholine-4-carbonyl)phenyl]methyl}piperazine-1-carboxylate] | < 25 | 25 to 75 | < 25 | – | – | –
O=C(ON1C(=O)CCC1=O)N1CCN(Cc2cc(Cl)ccc2C(=O)N2CCCC2)CC1 [Example 200, 2,5-Dioxopyrrolidin-1-yl 4-{[5-chloro-2-(pyrrolidine-1-carbonyl)phenyl]methyl}piperazine-1-carboxylate] | < 25 | < 25 | < 25 | – | – | –
Cc1ccc(C(=O)N2CCOCC2)c(CN2CCN(C(=O)ON3C(=O)CCC3=O)CC2)c1 [Example 201, 2,5-Dioxopyrrolidin-1-yl 4-{[5-methyl-2-(morpholine-4-carbonyl)phenyl]methyl}piperazine-1-carboxylate] | < 25 | < 25 | < 25 | – | – | –
Cc1ccc(C(=O)N2CCCC2)c(CN2CCN(C(=O)ON3C(=O)CCC3=O)CC2)c1 [Example 202, 2,5-Dioxopyrrolidin-1-yl 4-{[5-methyl-2-(pyrrolidine-1-carbonyl)phenyl]methyl}piperazine-1-carboxylate] | < 25 | < 25 | < 25 | – | – | –
O=C(ON1C(=O)CCC1=O)N1CCN(Cc2cc(C(F)(F)F)ccc2C(=O)N2CCOCC2)CC1 [Example 203, 2,5-Dioxopyrrolidin-1-yl 4-{[2-(morpholine-4-carbonyl)-5-(trifluoromethyl)phenyl]methyl}piperazine-1-carboxylate] | < 25 | < 25 | < 25 | – | – | –
O=C(ON1C(=O)CCC1=O)N1CCN(Cc2cc(C(F)(F)F)ccc2C(=O)N2CCCC2)CC1 [Example 204, 2,5-Dioxopyrrolidin-1-yl 4-{[2-(pyrrolidine-1-carbonyl)-5-(trifluoromethyl)phenyl]methyl}piperazine-1-carboxylate] | < 25 | < 25 | < 25 | – | – | –
Cc1c(CN2CCN(C(=O)ON3C(=O)CCC3=O)CC2)cccc1C(=O)N1CCOCC1 [Example 205, 2,5-Dioxopyrrolidin-1-yl 4-{[2-methyl-3-(morpholine-4-carbonyl)phenyl]methyl}piperazine-1-carboxylate] | < 25 | > 75 | < 25 | – | – | –
Cc1c(CN2CCN(C(=O)ON3C(=O)CCC3=O)CC2)cccc1C(=O)N1CCCC1 [Example 206, 2,5-Dioxopyrrolidin-1-yl 4-{[2-methyl-3-(pyrrolidine-1-carbonyl)phenyl]methyl}piperazine-1-carboxylate] | 25 to 75 | > 75 | < 25 | – | – | –
Cc1c(CN2CCN(C(=O)ON3C(=O)CCC3=O)CC2)cccc1C(=O)N1CCC1 [Example 207, 2,5-Dioxopyrrolidin-1-yl 4-{[3-(azetidine-1-carbonyl)-2-methylphenyl]methyl}piperazine-1-carboxylate] | 25 to 75 | > 75 | < 25 | – | – | –
Cc1cc(CN2CCN(C(=O)ON3C(=O)CCC3=O)CC2)cc(C(=O)N2CCOCC2)c1 [Example 208, 2,5-Dioxopyrrolidin-1-yl 4-{[3-methyl-5-(morpholine-4-carbonyl)phenyl]methyl}piperazine-1-carboxylate] | < 25 | < 25 | < 25 | – | – | –
O=C(ON1C(=O)CCC1=O)N1CCN(Cc2ccc(Cl)c(C(=O)N3CCOCC3)c2)CC1 [Example 209, 2,5-Dioxopyrrolidin-1-yl 4-{[4-chloro-3-(morpholine-4-carbonyl)phenyl]methyl}piperazine-1-carboxylate] | < 25 | < 25 | < 25 | – | – | –
O=C(ON1C(=O)CCC1=O)N1CCN(Cc2ccc(Cl)c(C(=O)N3CCC3)c2)CC1 [Example 210, 2,5-Dioxopyrrolidin-1-yl 4-{[3-(azetidine-1-carbonyl)-4-chlorophenyl]methyl}piperazine-1-carboxylate] | < 25 | 25 to 75 | < 25 | – | – | –
O=C(ON1C(=O)CCC1=O)N1CCN(C(=O)c2cccc(Cl)c2)CC1 [Example 211, 2,5-Dioxopyrrolidin-1-yl 4-(3-chlorobenzoyl)piperazine-1-carboxylate] | – | – | – | 25 to 75 | 25 to 75 | < 25
O=C(ON1C(=O)CCC1=O)N1CCN(C(=O)c2ccccc2)CC1 [Example 212, 2,5-Dioxopyrrolidin-1-yl 4-benzoylpiperazine-1-carboxylate] | – | – | – | 25 to 75 | < 25 | < 25
O=C(CN1CCCCC1)N1CCN(C(=O)ON2C(=O)CCC2=O)CC1 [Example 213, 2,5-Dioxopyrrolidin-1-yl 4-[2-(piperidin-1-yl)acetyl]piperazine-1-carboxylate] | – | – | – | < 25 | < 25 | < 25
O=C(CN1CCCC1)N1CCN(C(=O)ON2C(=O)CCC2=O)CC1 [Example 214, 2,5-Dioxopyrrolidin-1-yl 4-[2-(pyrrolidin-1-yl)acetyl]piperazine-1-carboxylate] | – | – | – | < 25 | < 25 | < 25
O=C(CN1CCOCC1)N1CCN(C(=O)ON2C(=O)CCC2=O)CC1 [Example 215, 2,5-Dioxopyrrolidin-1-yl 4-[2-(morpholin-4-yl)acetyl]piperazine-1-carboxylate] | – | – | – | < 25 | < 25 | < 25
O=C(CN1CCC1)N1CCN(C(=O)ON2C(=O)CCC2=O)CC1 [Example 216, 2,5-Dioxopyrrolidin-1-yl 4-[2-(azetidin-1-yl)acetyl]piperazine-1-carboxylate] | – | – | – | < 25 | < 25 | < 25
O=C(ON1C(=O)CCC1=O)N1CCC(N2CCCC2)CC1 [Example 217, 2,5-Dioxopyrrolidin-1-yl 4-(pyrrolidin-1-yl)piperidine-1-carboxylate] | – | – | – | < 25 | < 25 | < 25
O=C(ON1C(=O)CCC1=O)N1CCC(N2CCCCC2)CC1 [Example 218, 2,5-Dioxopyrrolidin-1-yl 4-(piperidine-1-yl)piperidine-1-carboxylate] | – | – | – | < 25 | < 25 | < 25
O=C(ON1C(=O)CCC1=O)N1CCC(N2CCCC2=O)CC1 [Example 219, 2,5-Dioxopyrrolidin-1-yl 4-(2-oxopyrrolidin-1-yl)piperidine-1-carboxylate] | – | – | – | < 25 | 25 to 75 | < 25
O=C(ON1C(=O)CCC1=O)N1CCC(N2CCCCC2=O)CC1 [Example 220, 2,5-Dioxopyrrolidin-1-yl 4-(2-oxopiperidin-1-yl)piperidine-1-carboxylate] | – | – | – | < 25 | 25 to 75 | < 25
